In PubChem BioAssay (NCI):
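Results reflect a 48-hour exposure of cells in 96-well plates to compound at five concentrations. Here, GI50 denotes the concentration required for 50% inhibition of growth. TGI is the concentration that stops growth completely.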

Each molecule was assayed on MDA-N (assay: inhibition of tumour cell growth, NCI panel, 48 h).
Molecule `CCN(CC(=O)O)CC(=O)O` has a TGI greater than 100 µM. Molecule `Cc1cc(C)nc(NS(=O)(=O)c2ccc(Nc3c4ccccc4nc4c(C(=O)NCCO)cccc34)cc2)n1` has a TGI of 69.6 µM. `CCOC(=O)c1csc(NC(=O)CCCC#N)n1` was tested, and the TGI was greater than 100 µM. `O=c1cc(-c2ccccc2F)[nH]c2cc3c(cc12)OCO3` showed a TGI of 0.0396 µM. `COC1OC2COC(C)(C)OC2C2OC(C)(C)OC12` (centres undefined) was tested, and the TGI was greater than 100 µM. For `CCNC(=S)N/N=C/c1ccccn1`, the TGI was greater than 100 µM. In the case of `O=C1NN=C(c2c[nH]c3ccccc23)CC1NCc1ccccc1` (centres undefined), the TGI is reported as greater than 100 µM. Work on `C=C1CC=CC(C)(C)C1C/C=C(\C)C(O)CBr` (centres undefined) yielded a TGI greater than 100 µM. Work on `O=C(NCCCNCCCCNCCCNC(=O)C(F)(F)F)C(F)(F)F` yielded a TGI greater than 100 µM. `O=C(O)c1cc2ccccc2c(S(=O)(=O)O)c1O` gave a TGI greater than 100 µM. In the case of `CCc1cc(=O)n(/C(C)=C/c2ccccc2)n1C`, the TGI is reported as greater than 100 µM. `CCOC(=O)c1[nH]c2nc(SC)nc(NC)c2c1N` gave a TGI greater than 100 µM.

Each molecule was assayed on COLO 205 colon (assay: inhibition of tumour cell growth, NCI panel, 48 h).
In the case of `CCOP(=O)(OCC)c1cc(-c2ccccc2)ccc1N`, the TGI is reported as greater than 100 µM. `CCOC(=O)C1=C(C)NC(=O)N([N+](=O)[O-])C1c1ccccc1C(F)(F)F` (centres undefined) gave a TGI greater than 100 µM. Molecule `Brc1ccc2c(c1)-c1nc3c(cc1CC2)CCc1ccc(Br)cc1-3` has a TGI greater than 100 µM. In the case of `COP(=O)(CC(=O)C1OC(OCc2ccccc2)C(OCc2ccccc2)C(OCc2ccccc2)C1OCc1ccccc1)OC` (centres undefined), the TGI is reported as 15 µM. In the case of `OC(c1ccco1)C(F)(F)c1nc2ccccc2o1` (centres undefined), the TGI is reported as greater than 100 µM. In the case of `CN1c2ccccc2C(=O)NC12CCN(CC1COc3ccccc3O1)CC2` (centres undefined), the TGI is reported as greater than 100 µM. Work on `Cc1cn(C2CC(OC(c3ccccc3)(c3ccccc3)c3ccccc3)C(COC(c3ccccc3)(c3ccccc3)c3ccccc3)O2)c(=O)[nH]c1=O` (centres undefined) yielded a TGI greater than 100 µM. Work on `CCOC(=O)C(NC(=O)c1ccc(N=NN(C)C)cc1)C(C)C` (centres undefined) yielded a TGI greater than 100 µM. Work on `COc1cc(CCCOC2OC(COC3OCC(O)C(O)C3O)C(O)C(O)C2O)cc2cc(-c3ccc4c(c3)OCO4)oc12` (centres undefined) yielded a TGI greater than 175 µM. With `Cc1cc2c(cc1Cl)SC(NNc1cnc3ccccc3n1)=NS2(=O)=O` the TGI was greater than 100 µM. Molecule `O=[N+]([O-])c1ccc2nc3c(nc2c1)-c1c2ccccc2cc2cccc-3c12` has a TGI greater than 100 µM. `COc1ccc(CN2C(=O)C(=O)N(C)C2=O)c2ccccc12` gave a TGI greater than 10 µM. For `CCOC(=O)c1c(NC(=S)Nc2ccc(C)cc2)sc2c1CCN(C)C2`, the TGI was greater than 100 µM. Molecule `Cc1ccc(-n2cc(-c3ccc(Cl)cc3)c3c2N=CN2NC(c4ccco4)=NC32)cc1` (centres undefined) has a TGI greater than 100 µM. In the case of `COc1cc(/C=C/c2cc(=O)cc(/C=C/c3ccc(O)c(OC)c3)o2)ccc1O`, the TGI is reported as greater than 100 µM. Work on `c1ccc([P+](Cc2csnn2)(c2ccccc2)c2ccccc2)cc1` yielded a TGI greater than 100 µM. `NNC(=O)c1cccc2c1Oc1ccccc1S2` was tested, and the TGI was greater than 100 µM. `COc1cc2c(cc1O)CC[n+]1cc3c(OC)c(OC)ccc3cc1-2` gave a TGI greater than 100 µM. `NC(=S)N=Nc1c(O)cc(Nc2ccc(Cl)cc2Cl)c2ccccc12` gave a TGI greater than 100 µM. For `Cc1ccc(C(=O)c2[nH]c(Nc3cc(C)ccn3)c(C(=S)Nc3ccccc3)c2N)cc1`, the TGI was greater than 100 µM. In the case of `Nc1nc(Nc2ccc(OCc3cccc(F)c3)cc2)c2c(n1)[nH]c1ccc(O)cc12`, the GI50 is reported as 2.42 µM and the TGI is reported as 5.98 µM. `CCC1(CC)C(=O)NC(=S)N=C1N` was tested, and the TGI was greater than 100 µM. For `CC1=NC(C)(C)N(O)C1(C)C`, the TGI was greater than 100 µM. In the case of `O=c1oc2ccccc2c2nc3ccccc3cc12`, the TGI is reported as greater than 100 µM. `CCCC[C@@H]1CCN2C[C@@H](O)[C@@H](O)[C@H]2[C@@H]1O` was tested, and the TGI was greater than 100 µM. In the case of `O=C(NN1C(=O)CSC1c1ccc(Cl)c(Cl)c1)c1ccncc1` (centres undefined), the TGI is reported as greater than 100 µM. Molecule `Clc1cccc(C2ON=C(c3ccccc3)N2C23CC4CC(CC(C4)C2)C3)c1Cl` (centres undefined) has a TGI greater than 10 µM. `CNc1ccc2c(c1)Cc1ccccc1-2` showed a TGI greater than 100 µM. `CCN(CC(=O)O)CC(=O)O` gave a TGI greater than 100 µM. Molecule `Cc1cc(C)nc(NS(=O)(=O)c2ccc(Nc3c4ccccc4nc4c(C(=O)NCCO)cccc34)cc2)n1` has a TGI of 31.3 µM. For `CCOC(=O)c1csc(NC(=O)CCCC#N)n1`, the TGI was greater than 100 µM. Work on `O=c1cc(-c2ccccc2F)[nH]c2cc3c(cc12)OCO3` yielded a TGI of 0.281 µM. In the case of `COC1OC2COC(C)(C)OC2C2OC(C)(C)OC12` (centres undefined), the TGI is reported as greater than 100 µM. `CCNC(=S)N/N=C/c1ccccn1` showed a TGI greater than 100 µM. In the case of `COc1ccc(CCCCl)c(C2=NCCc3ccccc32)c1`, the TGI is reported as 82.8 µM. For `O=C1NN=C(c2c[nH]c3ccccc23)CC1NCc1ccccc1` (centres undefined), the TGI was greater than 100 µM. With `C=C1CC=CC(C)(C)C1C/C=C(\C)C(O)CBr` (centres undefined) the TGI was greater than 100 µM. `O=C(NCCCNCCCCNCCCNC(=O)C(F)(F)F)C(F)(F)F` gave a TGI greater than 100 µM. Molecule `CCOC(=O)C(C)NC(=O)N(C)C12CC3CC(CC(C3)C1)C2` (centres undefined) has a TGI greater than 316 µM. In the case of `O=C(O)c1cc2ccccc2c(S(=O)(=O)O)c1O`, the TGI is reported as greater than 100 µM. `CCc1cc(=O)n(/C(C)=C/c2ccccc2)n1C` gave a TGI greater than 100 µM. `CCOC(=O)c1[nH]c2nc(SC)nc(NC)c2c1N` was tested, and the TGI was greater than 100 µM. Work on `FC(F)=C(c1ccc(-c2ccc(Cl)cc2)cc1)C(F)(F)F` yielded a TGI of 36.1 µM.

The molecules below were run on BT-549 breast (assay: inhibition of tumour cell growth, NCI panel, 48 h).
Work on `CCOP(=O)(OCC)c1cc(-c2ccccc2)ccc1N` yielded a TGI greater than 100 µM. `COc1cc2c(cc1OCCCOc1cc3c(cc1OC)C(=O)N1CCC[C@H]1CN3)N=C[C@@H]1CCCN1C2=O` was tested, and the TGI was 10.3 µM. `CCOC(=O)C1=C(C)NC(=O)N([N+](=O)[O-])C1c1ccccc1C(F)(F)F` (centres undefined) gave a TGI greater than 100 µM. `Brc1ccc2c(c1)-c1nc3c(cc1CC2)CCc1ccc(Br)cc1-3` gave a TGI greater than 100 µM. With `COP(=O)(CC(=O)C1OC(OCc2ccccc2)C(OCc2ccccc2)C(OCc2ccccc2)C1OCc1ccccc1)OC` (centres undefined) the TGI was 71.2 µM. Work on `OC(c1ccco1)C(F)(F)c1nc2ccccc2o1` (centres undefined) yielded a TGI greater than 100 µM. For `Cc1cn(C2CC(OC(c3ccccc3)(c3ccccc3)c3ccccc3)C(COC(c3ccccc3)(c3ccccc3)c3ccccc3)O2)c(=O)[nH]c1=O` (centres undefined), the TGI was 98.4 µM. `Cc1cc2c(cc1Cl)SC(NNc1cnc3ccccc3n1)=NS2(=O)=O` was tested, and the TGI was greater than 100 µM. With `O=[N+]([O-])c1ccc2nc3c(nc2c1)-c1c2ccccc2cc2cccc-3c12` the TGI was 17.9 µM. Molecule `CCOC(=O)c1c(NC(=S)Nc2ccc(C)cc2)sc2c1CCN(C)C2` has a TGI greater than 100 µM. `Cc1ccc(-n2cc(-c3ccc(Cl)cc3)c3c2N=CN2NC(c4ccco4)=NC32)cc1` (centres undefined) was tested, and the TGI was 99.2 µM. Molecule `COc1cc(/C=C/c2cc(=O)cc(/C=C/c3ccc(O)c(OC)c3)o2)ccc1O` has a TGI greater than 100 µM. `NNC(=O)c1cccc2c1Oc1ccccc1S2` showed a TGI greater than 100 µM. For `COc1cc2c(cc1O)CC[n+]1cc3c(OC)c(OC)ccc3cc1-2`, the TGI was greater than 100 µM. `NC(=S)N=Nc1c(O)cc(Nc2ccc(Cl)cc2Cl)c2ccccc12` showed a TGI of 97.5 µM. `Cc1ccc(C(=O)c2[nH]c(Nc3cc(C)ccn3)c(C(=S)Nc3ccccc3)c2N)cc1` was tested, and the TGI was greater than 100 µM. Work on `Nc1nc(Nc2ccc(OCc3cccc(F)c3)cc2)c2c(n1)[nH]c1ccc(O)cc12` yielded a GI50 of 1.88 µM and a TGI of 4.01 µM. Molecule `O=c1oc2ccccc2c2nc3ccccc3cc12` has a TGI greater than 100 µM. `CCCC[C@@H]1CCN2C[C@@H](O)[C@@H](O)[C@H]2[C@@H]1O` gave a TGI greater than 100 µM. `CCN(CC(=O)O)CC(=O)O` showed a TGI greater than 100 µM. `Cc1cc(C)nc(NS(=O)(=O)c2ccc(Nc3c4ccccc4nc4c(C(=O)NCCO)cccc34)cc2)n1` was tested, and the TGI was 34 µM. `COC1OC2COC(C)(C)OC2C2OC(C)(C)OC12` (centres undefined) was tested, and the TGI was greater than 100 µM. With `CCNC(=S)N/N=C/c1ccccn1` the TGI was 87.6 µM. Work on `COc1ccc(CCCCl)c(C2=NCCc3ccccc32)c1` yielded a TGI greater than 100 µM. For `O=C1NN=C(c2c[nH]c3ccccc23)CC1NCc1ccccc1` (centres undefined), the TGI was greater than 100 µM. `C=C1CC=CC(C)(C)C1C/C=C(\C)C(O)CBr` (centres undefined) showed a TGI greater than 100 µM. `O=C(NCCCNCCCCNCCCNC(=O)C(F)(F)F)C(F)(F)F` was tested, and the TGI was greater than 100 µM. `O=C(O)c1cc2ccccc2c(S(=O)(=O)O)c1O` was tested, and the TGI was greater than 100 µM. Molecule `CCc1cc(=O)n(/C(C)=C/c2ccccc2)n1C` has a TGI greater than 100 µM. Molecule `CCOC(=O)c1[nH]c2nc(SC)nc(NC)c2c1N` has a TGI greater than 100 µM. Work on `FC(F)=C(c1ccc(-c2ccc(Cl)cc2)cc1)C(F)(F)F` yielded a TGI of 39.3 µM.

These molecules were tested on 786-0 renal (assay: inhibition of tumour cell growth, NCI panel, 48 h).
`CCOP(=O)(OCC)c1cc(-c2ccccc2)ccc1N` showed a TGI greater than 100 µM. `COc1cc2c(cc1OCCCOc1cc3c(cc1OC)C(=O)N1CCC[C@H]1CN3)N=C[C@@H]1CCCN1C2=O` showed a TGI of 2.18 µM. `Brc1ccc2c(c1)-c1nc3c(cc1CC2)CCc1ccc(Br)cc1-3` showed a TGI greater than 100 µM. Work on `COP(=O)(CC(=O)C1OC(OCc2ccccc2)C(OCc2ccccc2)C(OCc2ccccc2)C1OCc1ccccc1)OC` (centres undefined) yielded a TGI greater than 100 µM. `OC(c1ccco1)C(F)(F)c1nc2ccccc2o1` (centres undefined) showed a TGI greater than 100 µM. Molecule `CN1c2ccccc2C(=O)NC12CCN(CC1COc3ccccc3O1)CC2` (centres undefined) has a TGI greater than 100 µM. `Cc1cn(C2CC(OC(c3ccccc3)(c3ccccc3)c3ccccc3)C(COC(c3ccccc3)(c3ccccc3)c3ccccc3)O2)c(=O)[nH]c1=O` (centres undefined) showed a TGI greater than 100 µM. With `CCOC(=O)C(NC(=O)c1ccc(N=NN(C)C)cc1)C(C)C` (centres undefined) the TGI was greater than 100 µM. With `Cc1cc2c(cc1Cl)SC(NNc1cnc3ccccc3n1)=NS2(=O)=O` the TGI was greater than 100 µM. With `O=[N+]([O-])c1ccc2nc3c(nc2c1)-c1c2ccccc2cc2cccc-3c12` the TGI was greater than 100 µM. Work on `C(=N/Nc1ccc(-c2nc3ccccc3[nH]2)cc1)/c1c(-c2ccccc2)[nH]c2ccccc12` yielded a TGI greater than 100 µM. `CCOC(=O)c1c(NC(=S)Nc2ccc(C)cc2)sc2c1CCN(C)C2` gave a TGI greater than 100 µM. Work on `Cc1ccc(-n2cc(-c3ccc(Cl)cc3)c3c2N=CN2NC(c4ccco4)=NC32)cc1` (centres undefined) yielded a TGI of 17.4 µM. `COc1cc(/C=C/c2cc(=O)cc(/C=C/c3ccc(O)c(OC)c3)o2)ccc1O` showed a TGI greater than 100 µM. For `NNC(=O)c1cccc2c1Oc1ccccc1S2`, the TGI was greater than 100 µM. `COc1cc2c(cc1O)CC[n+]1cc3c(OC)c(OC)ccc3cc1-2` was tested, and the TGI was greater than 100 µM.
